Laboratory results from patent publication US6004938A, “Inositolglycans having insulin-like action” (Hoescht Aktiengesellschaft, priority 1996, dated 1999).

Columns and labels:
rat fat cells [1] = assay: Lipogenesis in isolated rat fat cells (insulin-like activity); assay type: cell-based, rat (Wistar); settings: 1.5 h; for EC50: read-out: Lipogenesis EC50; for Emax: read-out: Lipogenesis % Insmax
Experimental: (§1) This example provides exemplary methods for determining insulin-like activity. The biological activity of the compounds of the formula I according to the invention is determined with the aid of isolated fat cells from the rat.
(§2) The preparation of fat cells from the rat was carried out as follows: White fatty tissue of the epididymis (Wistar rat, 160-180 g, no food restriction) is digested with collagenase and the resulting isolated fat cells are separated off by means of filtration of undigested tissue and washed by flotation several times using Krebs-Ringer-Henseleit buffer (KRH buffer).
This test determines the insulin-stimulable conversion of glucose into toluene-soluble products (triglycerides, phospholipids, fatty acids), which promotes glucose transport and triglyceride (glycerol-3-P synthesis, esterification)/phospholipid/fatty acid synthesis including the insulin signal transmission cascade. At a glucose concentration of 2.5 mM in the test, the esterification (and not the glycerol-3-P synthesis including glucose transport) is rate-determining for the stimulation of lipogenesis.
200 μl (3×10^5 cells/ml) of rat fat cells in KRH buffer are incubated at 37° C. for 90 min with 100 μl of D-[3-^3 H] glucose (25 mM, 0.4 μCi) in the presence or absence of insulin (10 ng/ml) or compound of the formula I according to the invention (final volume 1 ml). By addition of a toluene-soluble scintillation cocktail (10 ml), the cells are disrupted and the lipids are separated off from water-soluble products and the incubation medium. After phase separation, the radioactivity incorporated in lipid products is determined directly without removal of the aqueous phase by scintillation measurement ([^3 H]lipid [dpm×10^-3 ]). A control value (incubation under identical conditions but without cells) is subtracted from this radioactivity. The lipogenesis rate is linear up to 120 min. The maximum stimulation factor--this is the ratio of the incubation result with insulin to the incubation results without insulin--is set at 100%. The percentage data under "%Insmax " are parts of the maximum stimulation factor defined in this way. The term EC50 indicates the concentration of the compound of the formula I at which 50% of the maximum stimulation to be achieved by the respective compound of the formula I is to be observed.

rat fat cells [2] = assay: Glucose transport in isolated rat fat cells (insulin-like activity); assay type: cell-based, rat (Wistar); settings: for Emax: 0.25 h, read-out: Glucose transport % Insmax; for EC50: read-out: Glucose transport EC50
Experimental: as §1, §2
[…] After addition of 15 μl of 2-[^3 H]-deoxyglucose (0.3 mM, 0.2 μCi), the incubation is continued at room temperature. After specified times (0-20 min), 100 μl of the test batch are removed and transferred to a reaction vessel (contents 400 μl), in which 250 μl of dinonyl phthalate have been initially introduced. After centrifugation (15,000×g, 1 min), the cells are separated off from the oily layer of the incubation medium underneath the oily layer by cutting the tube at the level of the oily layer and transferring to a scintillation vessel. After addition of 5 ml of water-soluble scintillation fluid, the radioactivity is determined. This total cell-associated radioactivity is corrected for [^3 H]-deoxyglucose which has passively diffused into the cells and is included in the cell interstices by subtraction of a control value (incubation in the presence of the glucose transport inhibitor cytochalasin B). The initial (stimulated) glucose transport rate is linear up to 15 min. The maximum stimulation factor--this is the ratio of the incubation result with insulin to the incubation result without insulin--is set at 100%.
The terms "%Insmax " and "EC50 " are as defined under A) lipogenesis.

[3] = concentration at 50% of the maximum stimulation achieved by the respective compound, rat fat cells, 90 min, 37° C.
[4] = part of maximum stimulation factor of insulin (set at 100%), rat fat cells, 90 min, 37° C., D-[3-3H]glucose
[5] = part of maximum stimulation factor of insulin (set at 100%), rat fat cells, 15 min, 37° C., 2-[3H]-deoxyglucose
[6] = concentration at 50% of the maximum stimulation achieved by the respective compound, rat fat cells, 2-[3H]-deoxyglucose

SMILES | EC50 (rat fat cells [1]; [3]) [µM] | EC50 (rat fat cells [2]; [6]) [µM] | Emax (rat fat cells [1]; [4]) [%] | Emax (rat fat cells [2]; [5]) [%] | Emax (rat fat cells [1]; Rattus norvegicus) [%] | EC50 (rat fat cells [1]; Rattus norvegicus) [µM] | Emax (rat fat cells [2]; Rattus norvegicus) [%] | EC50 (rat fat cells [2]; Rattus norvegicus) [µM]
N[C@H]1[C@H](O[C@@H]2[C@@H](O)[C@H](O)[C@@H](O)[C@H]3OP(O)(=S)O[C@H]32)O[C@H](CO)[C@@H](O[C@H]2O[C@H](CO[C@H]3O[C@H](CO)[C@@H](O)[C@H](O)[C@@H]3O[C@H]3O[C@H](CO[PH](=O)O)[C@@H](O)[C@H](O)[C@@H]3O[C@H]3O[C@H](CO)[C@@H](O)[C@H](O)[C@@H]3O)[C@@H](O)[C@H](O)[C@@H]2O)[C@@H]1O (stereo partly drawn) [C, HO-PO(H)O-6Manα1(Manα1-2)-2Manα1-6Manα1-4GluNβ1-6(D)inositol-1,2-(cyclic)-thiophosphate] | – | – | – | – | 64 | 7 | 29 | 10
N[C@H]1[C@H](O[C@H]2[C@H](O)[C@@H](O)[C@H](OP(=O)(O)O)[C@H](O)[C@@H]2O)O[C@H](CO)[C@@H](O)[C@@H]1O[C@H]1O[C@H](CO[C@H]2O[C@H](CO)[C@@H](O)[C@H](O)[C@@H]2O[C@H]2O[C@H](CO[PH](=O)O)[C@@H](O)[C@H](O)[C@@H]2O[C@H]2O[C@H](CO)[C@@H](O)[C@H](O)[C@@H]2O)[C@@H](O)[C@H](O)[C@@H]1O [D, HO-PO(H)O-6Manα1(Manα1-2)-2Manα1-6Manα1-3GluNβ1-6(L)inositol-3-phosphate] | 20 | 18 | 33 | 18 | – | – | – | –
NCCOP(=O)(O)OC[C@H]1O[C@H](OC[C@H]2O[C@H](O[C@H]3[C@H](O)[C@@H](N)[C@H](O[C@@H]4[C@@H](O)[C@H](O)[C@@H](O)[C@H]5OP(=O)(O)O[C@H]54)O[C@@H]3CO)[C@@H](OP(=O)(O)OCCN)[C@@H](O)[C@@H]2O)[C@@H](O[C@H]2O[C@H](CO[PH](=O)O)[C@@H](O)[C@H](O)[C@@H]2O[C@H]2O[C@H](CO)[C@@H](O)[C@H](O)[C@@H]2O)[C@@H](O)[C@@H]1O [E, HO-PO(H)O-6Manα1(Manα1-2)-2Manα1(6-EtNP)-6Manα1(2-EtNP)-4GluNβ1-6(D)inositol-1,2-(cyclic)-phosphate] | 60 | 30 | 48 | 34 | – | – | – | –
N[C@H]1[C@@H](O[C@H]2[C@H](O)[C@@H](O)[C@H](O)[C@@H]3OP(=O)(O)O[C@H]23)O[C@H](CO)[C@@H](O[C@H]2O[C@H](CO[PH](=O)O)[C@@H](O)[C@H](O)[C@@H]2O)[C@@H]1O [G, HO-PO(H)O-6Manα1-4GluNα1-6(L)inositol-1,2-(cyclic)-phosphate] | 15 | 15 | 25 | 9 | – | – | – | –
N[C@H]1[C@@H](O[C@H]2[C@H](O)[C@@H](O)[C@H](O)[C@H](O)[C@@H]2O)O[C@H](CO)[C@@H](O[C@H]2O[C@H](CO[PH](=O)O)[C@@H](O)[C@H](O)[C@@H]2O)[C@@H]1O [H, HO-PO(H)O-6Manα1-4GluNα1-6(L)inositol] | 25 | 10 | 15 | 2 | – | – | – | –
O=[PH](O)OC[C@H]1O[C@H](OC[C@H]2O[C@H](OC[C@H]3O[C@H](OC[C@H]4O[C@H](OC[C@H]5O[C@H](O[C@H]6[C@H](O)[C@@H](O)[C@H](OP(=O)(O)O)[C@H](O)[C@@H]6O)[C@@H](O)[C@@H](O)[C@@H]5O)[C@@H](O)[C@@H](O)[C@@H]4O)[C@@H](O)[C@@H](O)[C@@H]3O)[C@@H](O)[C@@H](O)[C@@H]2O)[C@@H](O)[C@@H](O)[C@@H]1O [O, HO-PO(H)O-6-Manα1-6Manα1-6Manα-1-6Manα1-6Manα1-6(L)inositol-3-phosphate] | 20 | 50 | 10 | 5 | – | – | – | –
N[C@H]1[C@H](O[C@H]2[C@H](O)[C@@H](O)[C@H](OP(=O)(O)O)[C@H](O)[C@@H]2O)O[C@H](CO)[C@@H](O)[C@@H]1O[C@H]1O[C@H](CO[C@H]2O[C@H](CO[PH](=O)O)[C@@H](O)[C@H](O)[C@@H]2O[C@H]2O[C@H](CO[PH](=O)O)[C@@H](O)[C@H](O)[C@@H]2O)[C@@H](O)[C@H](O)[C@@H]1O [Q, HO-PO(H)O-6Manα1-2Manα1(6-PO(H)OH)-6-Manα1-3GluNβ1-6(L)inositol-3-phosphate] | 40 | 30 | 44 | 18 | – | – | – | –
NC(=O)OC[C@H]1O[C@H](O[C@@H]2[C@@H](OC[C@H]3O[C@H](O[C@@H]4[C@@H](N)[C@H](O[C@H]5[C@H](O)[C@@H](O)[C@H](OP(=O)(O)O)[C@H](O)[C@@H]5O)O[C@H](CO)[C@H]4O)[C@@H](O)[C@@H](O)[C@@H]3O)O[C@H](COC(N)=O)[C@@H](O)[C@@H]2O)[C@@H](O[C@H]2O[C@H](CO)[C@@H](O)[C@H](O)[C@@H]2O)[C@@H](O)[C@@H]1O [R, H2 N-CO-O-6Manα1(Manα1-2)-2Manα1(6-CO-NH2)-6Manα1-3GluNβ1-6(L)inositol-3-phosphate] | 15 | 10 | 48 | 19 | – | – | – | –

The remaining compounds from weak to strong by EC50 (rat fat cells [1]; [3]), led by results:

EC50 (rat fat cells [1]; [3]) [µM] | EC50 (rat fat cells [2]; [6]) [µM] | SMILES | Emax (rat fat cells [1]; [4]) [%] | Emax (rat fat cells [2]; [5]) [%] | Emax (rat fat cells [1]; Rattus norvegicus) [%] | EC50 (rat fat cells [1]; Rattus norvegicus) [µM] | Emax (rat fat cells [2]; Rattus norvegicus) [%] | EC50 (rat fat cells [2]; Rattus norvegicus) [µM]
8.2 | 8.1 | N[C@H]1[C@H](O[C@@H]2[C@@H](O)[C@H](O)[C@@H](O)[C@H]3OP(=O)(O)O[C@H]32)O[C@H](CO)[C@@H](O[C@H]2O[C@H](CO[C@H]3O[C@H](CO)[C@@H](O)[C@H](O)[C@@H]3O[C@H]3O[C@H](CO[PH](=O)O)[C@@H](O)[C@H](O)[C@@H]3O[C@H]3O[C@H](CO)[C@@H](O)[C@H](O)[C@@H]3O)[C@@H](O)[C@H](O)[C@@H]2O)[C@@H]1O [B, HO-PO(H)O-6Manα1(Manα1-2)-2Manα1-6Manα1-4GluNβ1-6(D)inositol-1,2-(cyclic)-phosphate] | 77 | 41 | – | – | – | –
7 | 8 | N[C@H]1[C@H](O[C@H]2[C@H](O)[C@@H](O)[C@H](O)[C@@H]3OP(=O)(O)O[C@H]23)O[C@H](CO)[C@@H](O[C@H]2O[C@H](CO[C@H]3O[C@H](CO)[C@@H](O)[C@H](O)[C@@H]3O[C@H]3O[C@H](CO[PH](=O)O)[C@@H](O)[C@H](O)[C@@H]3O[C@H]3O[C@H](CO)[C@@H](O)[C@H](O)[C@@H]3O)[C@@H](O)[C@H](O)[C@@H]2O)[C@@H]1O [A, HO-PO(H)O-6Manα1(Manα1-2)-2Manα1-6Manα1-4GluNβ1-6(L)inositol-1,2-(cyclic)-phosphate] | 59 | 28 | – | – | – | –
7 | 6 | N[C@H]1[C@H](O[C@@H]2[C@@H](O)[C@H](O)[C@@H](O)[C@H]3OP(=O)(O)O[C@H]32)O[C@H](CO)[C@@H](O[C@H]2O[C@H](CO[C@H]3O[C@H](CO[PH](=O)O)[C@@H](O)[C@H](O)[C@@H]3O[C@H]3O[C@H](CO[PH](=O)O)[C@@H](O)[C@H](O)[C@@H]3O[C@H]3O[C@H](CO)[C@@H](O)[C@H](O)[C@@H]3O)[C@@H](O)[C@H](O)[C@@H]2O)[C@@H]1O [M, HO-PO(H)O-6Manα1(Manα1-2)-2Manα1(6-PO(H)OH)-6Manα1-4GluNβ1-6(D)-inositol-1,2-(cyclic)-phosphate] | 90 | 39 | – | – | – | –
3 | 5 | N[C@H]1[C@H](O[C@@H]2[C@@H](O)[C@H](O)[C@@H](O)[C@H]3OP(=O)(O)O[C@H]32)O[C@H](CO)[C@@H](O[C@H]2O[C@H](CO[C@H]3O[C@H](COS(=O)(=O)O)[C@@H](O)[C@H](O)[C@@H]3O[C@H]3O[C@H](COS(=O)(=O)O)[C@@H](O)[C@H](O)[C@@H]3O[C@H]3O[C@H](CO)[C@@H](O)[C@H](O)[C@@H]3O)[C@@H](O)[C@H](O)[C@@H]2O)[C@@H]1O [N, HO-SO2 -O-6Manα1(Manα1-2)-2Manα1(6-HSO3)-6Manα1-4-GluNβ1-6(D)-inositol-1,2-(cyclic)-phosphate] | 96 | 52 | – | – | – | –
